Assay results published in patent publication US20190367516A1 (Bayer Pharma Aktiengesellschaft, priority 2015, published 2019).
Read-outs that look alike come from different tables or passages of the source.

Target: T1, human M2 receptor (Homo sapiens, UniProt P08172)
T1 sequence (P08172 1-466): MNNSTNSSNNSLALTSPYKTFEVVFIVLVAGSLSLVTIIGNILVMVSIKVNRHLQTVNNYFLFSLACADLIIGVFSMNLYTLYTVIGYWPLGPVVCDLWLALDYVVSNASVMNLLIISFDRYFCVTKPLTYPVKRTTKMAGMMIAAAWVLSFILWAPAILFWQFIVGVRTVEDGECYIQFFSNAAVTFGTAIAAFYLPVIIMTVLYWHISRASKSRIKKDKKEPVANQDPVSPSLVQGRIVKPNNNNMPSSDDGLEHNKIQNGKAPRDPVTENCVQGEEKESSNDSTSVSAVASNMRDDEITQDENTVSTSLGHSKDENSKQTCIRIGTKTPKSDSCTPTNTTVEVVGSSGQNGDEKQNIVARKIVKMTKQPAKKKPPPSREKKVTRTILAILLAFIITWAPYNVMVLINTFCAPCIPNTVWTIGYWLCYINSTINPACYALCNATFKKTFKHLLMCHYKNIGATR
Conditions: for Emax: read-out: Efficiency, boosting of the acetylcholine effect at EC20 acetylcholine concentration

[1] = Receptor activity EC50, M2-GIRK1/4 activation test, acetylcholine at EC20, allosteric potency, in some cases mean values from two or more determinations
[2] = Receptor activity EC50, allosteric potency at EC20 acetylcholine, M2-GIRK1/4 reporter cells, in some cases mean of two or more determinations

| Compound | EC50 [1] [nM] | EC50 [2] [nM] | Emax (M2-GIRK1/4 reporter cells) [%] |
| --- | --- | --- | --- |
| O=C(NC1(C(F)(F)F)CCOCC1)c1cn(-c2ccc(F)cc2F)c2nc(N3C[C@@H](O)CC3=O)ccc2c1=O [Example 237, 1-(2,4-Difluorophenyl)-7-[(4S)-4-hydroxy-2-oxopyrrolidin-1-yl]-4-oxo-N-[4-(trifluoromethyl)tetrahydro-2H-pyran-4-yl]-1,4-dihydro-1,8-naphthyridine-3-carboxamide] | 751 |  |  |
| CC[C@H](NC(=O)c1cn(-c2c(F)cccc2F)c2nc(N3CC4CC4(O)C3)ccc2c1=O)C(F)(F)F (mixture of isomers) [Example 417, 1-(2,6-Difluorophenyl)-7-[1-hydroxy-3-azabicyclo[3.1.0]hex-3-yl]-4-oxo-N-[(2S)-1,1,1-trifluorobutan-2-yl]-1,4-dihydro-1,8-naphthyridine-3-carboxamide] |  | 24 | 100 |
| O=C(NC12CC3CC(CC(C3)C1)C2)c1cn(-c2ccc(F)cc2F)c2nc(N3CC(F)(F)C(F)(F)C3)ccc2c1=O [Example 77, 1-(2,4-Difluorophenyl)-4-oxo-7-(3,3,4,4-tetrafluoropyrrolidin-1-yl)-N-(tricyclo[3.3.1.1^3,7]dec-1-yl)-1,4-dihydro-1,8-naphthyridine-3-carboxamide] | 666 |  |  |
| CC(NC(=O)c1cn(-c2ccc(F)cc2F)c2nc(N3C[C@@H](O)CC3=O)ccc2c1=O)C(F)(F)C(F)(F)F (single isomer, unassigned) [Example 623] |  | 67 | 97 |
| O=C(N[C@H](C1CC1)C(F)(F)F)c1cn(-c2c(F)cccc2F)c2nc(N3CCNC3=O)ccc2c1=O [Example 629, N-[(1R)-1-Cyclopropyl-2,2,2-trifluoroethyl]-1-(2,6-difluorophenyl)-4-oxo-7-(2-oxoimidazolidin-1-yl)-1,4-dihydro-1,8-naphthyridine-3-carboxamide] |  | 44 | 100 |
| CNc1ccc2c(=O)c(C(=O)NC34CCC(CC3)CC4)cn(-c3ccc(F)cc3F)c2n1 [Example 162] | 38 |  |  |
| CCCC(NC(=O)c1cn(-c2ccc(F)cc2F)c2nc(N(C)CCF)ccc2c1=O)C(F)(F)F (stereo not drawn) [Example 106, 1-(2,4-Difluorophenyl)-7-[(2-fluoroethyl)(methyl)amino]-4-oxo-N-[1,1,1-trifluoropentan-2-yl]-1,4-dihydro-1,8-naphthyridine-3-carboxamide] | 32 |  |  |
| C[C@@H]1CN(c2ccc3c(=O)c(C(=O)N[C@@H](C)COC(F)(F)F)cn(-c4c(F)cc(F)cc4F)c3n2)C(=O)N1 [Example 381, 7-[(4R)-4-Methyl-2-oxoimidazolidin-1-yl]-4-oxo-N-[(2S)-1-(trifluoromethoxy)propan-2-yl]-1-(2,4,6-trifluorophenyl)-1,4-dihydro-1,8-naphthyridine-3-carboxamide] | 23 |  |  |
| CC[C@H](NC(=O)c1cn(-c2c(F)cc(F)cc2F)c2nc(N3C[C@@H](NC(C)=O)CC3=O)ccc2c1=O)C(F)(F)F [Example 517, 7-[(4S)-4-Acetamido-2-oxopyrrolidin-1-yl]-4-oxo-N-[(2S)-1,1,1-trifluorobutan-2-yl]-1-(2,4,6-trifluorophenyl)-1,4-dihydro-1,8-naphthyridine-3-carboxamide] |  | 85 | 88.5 |
| O=C(NC12CC3CC(CC(F)(C3)C1)C2)c1cn(-c2ccc(F)cc2F)c2nc(NCC(F)(F)F)ccc2c1=O [Example 91, 1-(2,4-Difluorophenyl)-N-(3-fluorotricyclo[3.3.1.1^3,7]dec-1-yl)-4-oxo-7-[(2,2,2-trifluoroethyl)amino]-1,4-dihydro-1,8-naphthyridine-3-carboxamide] | 58 |  |  |
| CC[C@H](NC(=O)c1cn(-c2c(F)cc(F)cc2F)c2nc(N(C)C[C@@H](C)O)ccc2c1=O)C(F)(F)F [Example 495] |  | 31 | 99.5 |
| CC1CN(c2ccc3c(=O)c(C(=O)N[C@@H](C4CC4)C(F)(F)F)cn(-c4c(F)cc(F)cc4F)c3n2)C(=O)O1 (mixture of isomers) [Example 436, N-[(1 S)-1-Cyclopropyl-2,2,2-trifluoroethyl]-7-[5-methyl-2-oxo-1,3-oxazolidin-3-yl]-4-oxo-1-(2,4,6-trifluorophenyl)-1,4-dihydro-1,8-naphthyridine-3-carboxamide] |  | 81 | 94 |
| CC(C)(NC(=O)c1cn(-c2c(F)cc(F)cc2F)c2nc(N3C[C@@H](O)[C@H](O)C3)ccc2c1=O)C(F)(F)F [Example 403] |  | 32 | 100 |
| CC[C@@H](NC(=O)c1cn(-c2c(F)cccc2F)c2nc(N3CCC(C)(O)C3)ccc2c1=O)C(F)(F)F (single isomer, unassigned) [Example 277] | 78 |  |  |
| CC(C)C[C@@H](NC(=O)c1cn(-c2c(F)cc(F)cc2F)c2nc(N3CCNC3=O)ccc2c1=O)C(F)(F)F [Example 580, 4-Oxo-7-(2-oxoimidazolidin-1-yl)-N-[(2R)-1,1,1-trifluoro-4-methylpentan-2-yl)-1-(2,4,6-trifluorophenyl)-1,4-dihydro-1,8-naphthyridine-3-carboxamide] |  | 14 | 100 |

The next lines start with the values.

| EC50 [1] [nM] | EC50 [2] [nM] | Emax (M2-GIRK1/4 reporter cells) [%] | Compound |
| --- | --- | --- | --- |
|  | 6 | 96 | CC(NC(=O)c1cn(-c2c(F)cc(F)cc2F)c2nc(N3C[C@@H](O)CC3=O)ccc2c1=O)C(F)(F)C(F)(F)F (mixture of isomers) [Example 529, 7-[(4S)-4-Hydroxy-2-oxopyrrolidin-1-yl]-4-oxo-N-[3,3,4,4,4-pentafluorobutan-2-yl]-1-(2,4,6-trifluorophenyl)-1,4-dihydro-1,8-naphthyridine-3-carboxamide] |
|  | 21 | 100 | COC1(C)CN(c2ccc3c(=O)c(C(=O)N[C@@H](C(C)(C)C)C(F)(F)F)cn(-c4c(F)cc(F)cc4F)c3n2)C1 [Example 598, 7-(3-Methoxy-3-methylazetidin-1-yl)-4-oxo-N-[(2S)-1,1,1-trifluoro-3,3-dimethylbutan-2-yl]-1-(2,4,6-trifluorophenyl)-1,4-dihydro-1,8-naphthyridine-3-carboxamide] |
|  | 9 | 90 | CC(NC(=O)c1cn(-c2c(F)cc(F)cc2F)c2nc(N3CCNC3=O)ccc2c1=O)C(F)(F)C(F)(F)F (racemic) [Example 540, 4-Oxo-7-(2-oxoimidazolidin-1-yl)-N-[3,3,4,4,4-pentafluorobutan-2-yl]-1-(2,4,6-trifluorophenyl)-1,4-dihydro-1,8-naphthyridine-3-carboxamide] |
|  | 10 | 100 | O=C(NC(CC(F)(F)F)C1CC1)c1cn(-c2c(F)cc(F)cc2F)c2nc(N3C[C@@H](O)CC3=O)ccc2c1=O (mixture of isomers) [Example 512, N-[1-Cyclopropyl-3,3,3-trifluoropropyl]-7-[(4S)-4-hydroxy-2-oxopyrrolidin-1-yl]-4-oxo-1-(2,4,6-trifluorophenyl)-1,4-dihydro-1,8-naphthyridine-3-carboxamide] |
|  | 16 | 99 | CC1CC(=O)N(c2ccc3c(=O)c(C(=O)N[C@@H](C4CC4)C(F)(F)F)cn(-c4c(F)cc(F)cc4Cl)c3n2)C1 (mixture of isomers) [Example 429, 1-(2-Chloro-4,6-difluorophenyl)-N-[(1 S)-1-cyclopropyl-2,2,2-trifluoroethyl]-7-[4-methyl-2-oxopyrrolidin-1-yl]-4-oxo-1,4-dihydro-1,8-naphthyridine-3-carboxamide] |
|  | 36 | 94.5 | CC(C)(NC(=O)c1cn(-c2c(F)cc(F)cc2F)c2nc(N3CCNC3=O)ccc2c1=O)C(F)F [Example 614, N-(1,1-Difluoro-2-methylpropan-2-yl)-4-oxo-7-(2-oxoimidazolidin-1-yl)-1-(2,4,6-trifluorophenyl)-1,4-dihydro-1,8-naphthyridine-3-carboxamide] |
| 10 |  |  | CCCC(NC(=O)c1cn(-c2ccc(F)cc2F)c2nc(N3CC[C@H](F)C3)ccc2c1=O)C(F)(F)F (stereo partly drawn) [Example 66, 1-(2,4-Difluorophenyl)-7-[(3S)-3-fluoropyrrolidin-1-yl]-4-oxo-N-[1,1,1-trifluoropentan-2-yl]-1,4-dihydro-1,8-naphthyridine-3-carboxamide] |
|  | 10 | 100 | O=C(NC(C(F)(F)F)C(F)(F)F)c1cn(-c2c(F)cc(F)cc2F)c2nc(N3C[C@@H](O)CC3=O)ccc2c1=O [Example 555, N-(1,1,1,3,3,3-Hexafluoropropan-2-yl)-7-[(4S)-4-hydroxy-2-oxopyrrolidin-1-yl]-4-oxo-1-(2,4,6-trifluorophenyl)-1,4-dihydro-1,8-naphthyridine-3-carboxamide] |
| 163 |  |  | O=C(N[C@H](c1ccccc1Cl)C(F)(F)F)c1cn(-c2ccc(F)cc2F)c2nc(N3CCCC(O)C3=O)ccc2c1=O (single isomer, unassigned) [Example 209] |
|  | 59 | 100 | O=C(NC1(CC(F)(F)F)CC1)c1cn(-c2c(F)cc(F)cc2F)c2nc(N3C[C@@H](O)[C@H](O)C3)ccc2c1=O [Example 635, 7-[(3R,4R)-3,4-Dihydroxypyrrolidin-1-yl]-4-oxo-N-[1-(2,2,2-trifluoroethyl)cyclopropyl]-1-(2,4,6-trifluorophenyl)-1,4-dihydro-1,8-naphthyridine-3-carboxamide] |
| 110 |  |  | Cc1ccccc1C(NC(=O)c1cn(-c2ccc(F)cc2F)c2nc(N(C)C)ccc2c1=O)C(F)(F)F (racemic) [Example 142, rac-1-(2,4-Difluorophenyl)-7-(dimethylamino)-4-oxo-N-[2,2,2-trifluoro-1-(2-methylphenyl)ethyl]-1,4-dihydro-1,8-naphthyridine-3-carboxamide] |
